What all share (test): DTP human tumour cell line panel, 48 h
Assay [1] concerns RXF 393 renal.
The test system of assay [2] is SW-620 colon.
Assay [3] relates to HCT-116 colon.
Assay [4] concerns COLO 205 colon.
Assay [5] deals with KM12 colon.
Assay [6] concerns HCT-15 colon.
Assay [7] relates to MCF7 breast.
The test system of assay [8] is MDA-MB-435.
Assay [9] relates to M14 melanoma.
Assay [10] deals with HS 578T breast.
Assay [11] deals with A549 NSCLC.
The test system of assay [12] is MOLT-4 leukemia.
For assay [13], the system named is A498 renal.
Assay [14] concerns RPMI-8226 leukemia.
In assay [15] the test system is HCC-2998 colon.
The subject of assay [16] is SF-295 CNS.
The test system of assay [17] is MALME-3M melanoma.
Assay [18] has as its system HOP-92 NSCLC.
In assay [19] the test system is NCI/ADR-RES ovarian.
The subject of assay [20] is OVCAR-5 ovarian.

The structures appear in SMILES notation.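 Dose response: 5 concentrations. Exposure: 48 h. Format: 96-well plates. Endpoint: linear interpolation; highest concentration if not reached. TGI marks complete inhibition of growth.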

As a reminder, the TGI is the concentration at which net growth stops. Read a high TGI as lower sensitivity of the cells.

Regarding `C=CC(c1ccccc1)[C@@]1(OC(C)=O)C(=O)C(=O)OC1C1COC(C)(C)O1` (some centres undefined), the TGI in assay [1] was 14.6 µM; in [2], 35.8 µM; in assay [3], 24.7 µM; in [4], 26.5 µM; in assay [5] it was 29.5 µM; in [6], 24.9 µM. Besides, the TGI in assay [7] came out at 22.8 µM; in [8], 31.2 µM; in assay [9], 25.5 µM; in [10], 68.3 µM; in assay [11] it was 34.5 µM; in [12], 34.6 µM. Besides, the TGI in assay [13] amounted to 47.9 µM; in assay [14], 56.4 µM; in assay [15], 32.8 µM; in [16], 31.6 µM; in [17], 34.3 µM; in assay [18] it was 15.9 µM. The TGI in assay [19] stood at 51.7 µM; in [20] it was 33.2 µM.
With `COC(=O)c1ccccc1CC1Cc2ccc3c(c2C1)CCC3` (centres undefined), the TGI in assay [1] was 52.9 µM; in assay [2] it was greater than 100 µM; in [3], greater than 100 µM; in [4] it was 34.5 µM; in [5], 92.1 µM; in assay [6], 55.3 µM. The TGI was 30.1 µM in [7]; 57.9 µM in assay [8]; greater than 100 µM in [9]; greater than 100 µM in [10]; greater than 100 µM in [11]; 53.9 µM in assay [12]. The total growth inhibition concentration (TGI) in assay [13] is greater than 100 µM; in [14], 47.7 µM; in assay [15], 45.7 µM; in [16], greater than 100 µM; in assay [17], 38.6 µM; in assay [18], 52.5 µM. For the same molecule, the TGI in assay [19] was 45.7 µM; in [20] it was 91.3 µM.
`O=C1c2ccccc2C(=O)[C@@]23O[C@@]12C1(Oc2cccc4cccc(c24)O1)[C@@H]1O[C@@H]1[C@@H]3O`: the TGI in assay [1] was 10.4 µM; in assay [2] it was greater than 49.1 µM; in [3], 15.1 µM; in [4], 27 µM; in assay [5] it was 27.3 µM; in assay [6], 17.6 µM. Also, the total growth inhibition concentration (TGI) was 14.6 µM in assay [7]; greater than 59.6 µM in [8]; 23.4 µM in [9]; 51.8 µM in assay [10]; greater than 49 µM in assay [11]; 24.5 µM in assay [12]. Besides, the TGI was greater than 100 µM in assay [13]; greater than 23.1 µM in assay [14]; 22 µM in [15]; 26 µM in [16]; 30.3 µM in [17]; 31.9 µM in assay [18]. Besides, the values for the TGI in [19] and in assay [20] were 15.7 µM and 39.3 µM, respectively.
For the molecule `COC(=O)C1(c2cc3ccccc3n2S(=O)(=O)c2ccccc2)CC2C=CC1NC2` (centres undefined), the TGI in assay [1] was 3.5 µM; in assay [2], greater than 21.7 µM; in assay [3], 6.16 µM; in assay [4], 4.61 µM; in [5], 8.29 µM; in assay [6] it was 3.93 µM. Also, the TGI was 3.06 µM in assay [7]; 3.86 µM in assay [8]; 3.44 µM in [9]; greater than 25.9 µM in assay [10]; 10.9 µM in assay [11]; 4.95 µM in assay [12]. Besides, the TGI in assay [13] was 13 µM; in assay [14], 2.74 µM; in assay [15], 3.8 µM; in assay [16], 10.2 µM; in assay [17], greater than 22.8 µM; in assay [18], 4.12 µM. Also, the TGI is 6.95 µM in assay [19] and 6.37 µM in assay [20].
Turning to `O=c1[nH]/c(=C/c2ccc(OCc3ccccc3)cn2)c(=O)[nH]/c1=C/c1ccc([N+](=O)[O-])cc1`, the TGI in assay [1], in [2], in [3], in assay [4], in assay [5] and in [6] was greater than 100 µM in each case. Further, the TGI was greater than 100 µM in assay [7]; greater than 100 µM in assay [8]; greater than 100 µM in assay [9]; greater than 78.4 µM in assay [10]; greater than 100 µM in assay [11]; greater than 100 µM in [12]. Also, the TGI in assay [13] is greater than 84.3 µM; in assay [14], greater than 100 µM; in [15], greater than 100 µM; in assay [16], greater than 100 µM; in [17], greater than 100 µM; in assay [18] it was greater than 100 µM. Moreover, the TGI in assay [19] and in assay [20] was greater than 100 µM each time.
`c1cc(Sc2nc(Sc3ccncc3)nc(Sc3ccncc3)n2)ccn1`: the TGI in assay [1], in assay [2], in assay [3], in [4], in [5] and in assay [6] was greater than 100 µM each time. Further, the TGI in assay [7], in assay [8], in assay [9], in assay [10], in assay [11] and in assay [12] was greater than 100 µM each time. Further, the total growth inhibition concentration (TGI) in assay [13], in [14], in assay [15], in assay [16], in [17] and in assay [18] was greater than 100 µM throughout. The TGI in [19] and in assay [20] was greater than 100 µM each time.
For the molecule `CC1(C)O[C@@H]2[C@@H](COC(=O)c3ccccc3)C[C@@H](C#N)[C@@H]2O1`, the TGI in [1], in assay [2], in assay [3], in assay [4], in assay [5] and in [6] was greater than 100 µM in each case. The TGI in [7], in [8], in assay [9], in [10], in assay [11] and in assay [12] was greater than 100 µM throughout. Also, the TGI in assay [13], in [14], in assay [15], in [16], in assay [17] and in assay [18] was greater than 100 µM each time. Further, the TGI in assay [19] and in assay [20] was greater than 100 µM in each case.
`Cc1ccc(NC(=O)CSc2nc(C)nc3c2sc(=S)n3-c2ccccc2)cc1`: the TGI is 9.17 µM in [1]; greater than 10 µM in assay [2]; greater than 10 µM in assay [3]; greater than 10 µM in assay [4]; greater than 10 µM in assay [5]; greater than 10 µM in [6]. In addition, the TGI in assay [7] was greater than 10 µM; in assay [8] it was greater than 10 µM; in assay [9] it was greater than 10 µM; in assay [10], 6.3 µM; in assay [11] it was greater than 10 µM; in assay [12], greater than 10 µM. Besides, the TGI in [13] was greater than 10 µM; in [14], greater than 10 µM; in assay [15], greater than 10 µM; in assay [16], greater than 10 µM; in [17], greater than 10 µM; in [18], 9.04 µM. Besides, the concentration for total growth inhibition (TGI) in assay [19] and in [20] was greater than 10 µM throughout.
As to `Nc1nc(Cl)c2ncn(Cc3ccc(CCl)cc3)c2n1`, the TGI came to 7.26 µM in assay [1]; 13.8 µM in assay [2]; 14.5 µM in [3]; 13.4 µM in [4]; 22.9 µM in assay [5]; 19.8 µM in assay [6]. Further, the TGI in assay [7] is 16.8 µM; in assay [8], 42.5 µM; in assay [9], 37.7 µM; in [10] it was greater than 100 µM; in assay [11], 76.2 µM; in [12], greater than 100 µM. Further, the TGI was 84.6 µM in [13]; greater than 100 µM in assay [14]; 8.95 µM in assay [15]; 27.8 µM in [16]; 27.3 µM in assay [17]; greater than 100 µM in assay [18]. For the same molecule, the values for the TGI in assay [19] and in assay [20] were 26.7 µM and 14.9 µM, respectively.
In the case of `Oc1cc(-c2ccccc2)cn2c1nc1ccccc12`, the total growth inhibition concentration (TGI) in assay [1], in [2], in [3], in [4], in assay [5] and in assay [6] was greater than 100 µM in each case. Further, the TGI in assay [7] is greater than 100 µM; in assay [8] it was greater than 100 µM; in assay [9], greater than 100 µM; in assay [10], 47.7 µM; in [11] it was greater than 100 µM; in assay [12], greater than 100 µM. In addition, the TGI is greater than 100 µM in assay [13]; greater than 100 µM in [14]; greater than 100 µM in assay [15]; greater than 46.1 µM in assay [16]; greater than 100 µM in assay [17]; greater than 100 µM in assay [18]. The values for the TGI in assay [19] and in [20] were 11.8 µM and greater than 100 µM, respectively.
For `COc1ccc(C(=O)Cn2c(C(=O)/C=C/c3ccco3)nc3ccccc32)cc1`, the TGI is greater than 100 µM in [1]; greater than 100 µM in assay [2]; greater than 100 µM in assay [3]; 71.8 µM in assay [4]; greater than 100 µM in assay [5]; greater than 100 µM in [6]. Also, the TGI is greater than 100 µM in assay [7]; greater than 100 µM in assay [8]; greater than 100 µM in assay [9]; 63.8 µM in [10]; greater than 100 µM in assay [11]; greater than 100 µM in [12]. For the same molecule, the TGI in assay [13] was greater than 100 µM; in assay [14] it was 88.7 µM; in assay [15], 37.1 µM; in assay [17] it was greater than 100 µM; in assay [18] it was greater than 100 µM; in assay [19], 75.2 µM. This molecule showed a TGI in assay [20] greater than 100 µM.
